Results taken from PubChem BioAssay (NCI).
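Grown in 96-well plates, cells were treated for 48 hours with each compound at five concentrations. Insufficient inhibition: endpoint recorded as highest concentration tested. TGI is the concentration that stops growth completely.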

What was measured:
Experiment in all cases: NCI anticancer screen, dose series, 48 h
HT29 colon = tested on: HT29 colon
SK-MEL-28 melanoma = tested on: SK-MEL-28 melanoma
OVCAR-5 ovarian = tested on: OVCAR-5 ovarian
MALME-3M melanoma = tested on: MALME-3M melanoma
COLO 205 colon = tested on: COLO 205 colon
M19-MEL melanoma = tested on: M19-MEL melanoma
SF-539 CNS = tested on: SF-539 CNS
TK-10 renal = tested on: TK-10 renal
CCRF-CEM leukemia = tested on: CCRF-CEM leukemia
OVCAR-8 ovarian = tested on: OVCAR-8 ovarian
MOLT-4 leukemia = tested on: MOLT-4 leukemia
SNB-19 CNS = tested on: SNB-19 CNS
UACC-257 melanoma = tested on: UACC-257 melanoma
RXF 393 renal = tested on: RXF 393 renal
UO-31 renal = tested on: UO-31 renal
HOP-18 NSCLC = tested on: HOP-18 NSCLC
NCI-H23 lung = tested on: NCI-H23 lung
SF-295 CNS = tested on: SF-295 CNS
UACC-62 melanoma = tested on: UACC-62 melanoma
ACHN renal = tested on: ACHN renal
OVCAR-3 ovarian = tested on: OVCAR-3 ovarian
M14 melanoma = tested on: M14 melanoma
RXF-631 renal = tested on: RXF-631 renal
RPMI-8226 leukemia = tested on: RPMI-8226 leukemia
IGROV1 ovarian = tested on: IGROV1 ovarian
HCT-15 colon = tested on: HCT-15 colon
DMS 273 small cell lung = tested on: DMS 273 small cell lung
NCI-H226 lung = tested on: NCI-H226 lung
KM12 colon = tested on: KM12 colon
SNB-78 CNS = tested on: SNB-78 CNS
CAKI-1 renal = tested on: CAKI-1 renal
K-562 leukemia = tested on: K-562 leukemia
SNB-75 CNS = tested on: SNB-75 CNS
SF-268 CNS = tested on: SF-268 CNS
SK-OV-3 ovarian = tested on: SK-OV-3 ovarian
U251 CNS = tested on: U251 CNS
LXFL 529 NSCLC = tested on: LXFL 529 NSCLC
HCC-2998 colon = tested on: HCC-2998 colon
NCI-H522 lung = tested on: NCI-H522 lung
EKVX NSCLC = tested on: EKVX NSCLC
SK-MEL-2 melanoma = tested on: SK-MEL-2 melanoma
DMS 114 small cell lung = tested on: DMS 114 small cell lung
LOX IMVI melanoma = tested on: LOX IMVI melanoma
SN12C renal = tested on: SN12C renal
786-0 renal = tested on: 786-0 renal
HOP-62 NSCLC = tested on: HOP-62 NSCLC
HL-60(TB) leukemia = tested on: HL-60(TB) leukemia
DLD-1 colon = tested on: DLD-1 colon
OVCAR-4 ovarian = tested on: OVCAR-4 ovarian
SW-620 colon = tested on: SW-620 colon
A498 renal = tested on: A498 renal
HCT-116 colon = tested on: HCT-116 colon
HOP-92 NSCLC = tested on: HOP-92 NSCLC
NCI-H460 lung = tested on: NCI-H460 lung
A549 NSCLC = tested on: A549 NSCLC
KM20L2 colon = tested on: KM20L2 colon

## Cc1nc2c(sc(=S)n2-c2ccccc2)c2nc3ccccc3n12
HT29 colon
  TGI: > 100 µM
SK-MEL-28 melanoma
  TGI: > 100 µM
OVCAR-5 ovarian
  TGI: > 100 µM
MALME-3M melanoma
  TGI: > 100 µM
COLO 205 colon
  TGI: > 100 µM
M19-MEL melanoma
  TGI: > 100 µM
SF-539 CNS
  TGI: > 100 µM
TK-10 renal
  TGI: > 100 µM
CCRF-CEM leukemia
  TGI: > 100 µM
OVCAR-8 ovarian
  TGI: > 100 µM
MOLT-4 leukemia
  TGI: > 100 µM
SNB-19 CNS
  TGI: > 100 µM
UACC-257 melanoma
  TGI: > 100 µM
RXF 393 renal
  TGI: > 100 µM
UO-31 renal
  TGI: > 100 µM
HOP-18 NSCLC
  TGI: > 100 µM
NCI-H23 lung
  TGI: > 100 µM
SF-295 CNS
  TGI: > 100 µM
UACC-62 melanoma
  TGI: > 100 µM
ACHN renal
  TGI: > 100 µM
OVCAR-3 ovarian
  TGI: > 100 µM
M14 melanoma
  TGI: > 100 µM
RXF-631 renal
  TGI: > 100 µM
RPMI-8226 leukemia
  TGI: > 100 µM
IGROV1 ovarian
  TGI: > 100 µM
HCT-15 colon
  TGI: > 100 µM
DMS 273 small cell lung
  TGI: > 100 µM
NCI-H226 lung
  TGI: > 100 µM
KM12 colon
  TGI: > 100 µM
SNB-78 CNS
  TGI: > 100 µM
CAKI-1 renal
  TGI: > 100 µM
K-562 leukemia
  TGI: > 100 µM
SNB-75 CNS
  TGI: > 100 µM
SF-268 CNS
  TGI: > 100 µM
SK-OV-3 ovarian
  TGI: > 100 µM
U251 CNS
  TGI: > 100 µM
LXFL 529 NSCLC
  TGI: > 100 µM
HCC-2998 colon
  TGI: > 100 µM
NCI-H522 lung
  TGI: > 100 µM
EKVX NSCLC
  TGI: > 100 µM
SK-MEL-2 melanoma
  TGI: > 100 µM
DMS 114 small cell lung
  TGI: > 100 µM
LOX IMVI melanoma
  TGI: > 100 µM
SN12C renal
  TGI: > 100 µM
786-0 renal
  TGI: > 100 µM
HOP-62 NSCLC
  TGI: > 100 µM
HL-60(TB) leukemia
  TGI: > 100 µM
DLD-1 colon
  TGI: > 100 µM
OVCAR-4 ovarian
  TGI: > 100 µM

## CCN(CC)CCCC(C)Nc1c(Sc2cnc3cc(Cl)ccc3c2NC(C)CCCN(CC)CC)cnc2cc(Cl)ccc12 (centres undefined)
HT29 colon
  TGI: 3.65 µM
SW-620 colon
  TGI: 2.92 µM
SK-MEL-28 melanoma
  TGI: 3.34 µM
OVCAR-5 ovarian
  TGI: 3.34 µM
MALME-3M melanoma
  TGI: 3.71 µM
COLO 205 colon
  TGI: 2.88 µM
M19-MEL melanoma
  TGI: 3.02 µM
TK-10 renal
  TGI: 3.24 µM
CCRF-CEM leukemia
  TGI: 5.21 µM
A498 renal
  TGI: 3.31 µM
HCT-116 colon
  TGI: 2.95 µM
OVCAR-8 ovarian
  TGI: 3.15 µM
MOLT-4 leukemia
  TGI: 4.57 µM
UACC-257 melanoma
  TGI: 3.49 µM
RXF 393 renal
  TGI: 3.22 µM
UO-31 renal
  TGI: 35.5 µM
HOP-18 NSCLC
  TGI: 4.49 µM
NCI-H23 lung
  TGI: 9.25 µM
HOP-92 NSCLC
  TGI: 4.07 µM
UACC-62 melanoma
  TGI: 3.13 µM
NCI-H460 lung
  TGI: 3.23 µM
ACHN renal
  TGI: 3.82 µM
A549 NSCLC
  TGI: 3.24 µM
OVCAR-3 ovarian
  TGI: 3.78 µM
M14 melanoma
  TGI: 3.29 µM
RXF-631 renal
  TGI: 4.48 µM
RPMI-8226 leukemia
  TGI: 4.55 µM
KM20L2 colon
  TGI: 3.09 µM
IGROV1 ovarian
  TGI: 3.51 µM
HCT-15 colon
  TGI: 3.16 µM
DMS 273 small cell lung
  TGI: 3.17 µM
NCI-H226 lung
  TGI: 3.52 µM
KM12 colon
  TGI: 3.79 µM
SNB-78 CNS
  TGI: 4.74 µM
CAKI-1 renal
  TGI: 2.86 µM
K-562 leukemia
  TGI: 3.7 µM
SNB-75 CNS
  TGI: 2.98 µM
SF-268 CNS
  TGI: 3.83 µM
SK-OV-3 ovarian
  TGI: 3.08 µM
U251 CNS
  TGI: 2.99 µM
LXFL 529 NSCLC
  TGI: 3.38 µM
HCC-2998 colon
  TGI: 1.14 µM
NCI-H522 lung
  TGI: 3.15 µM
SK-MEL-2 melanoma
  TGI: 3.3 µM
LOX IMVI melanoma
  TGI: 3.36 µM
SN12C renal
  TGI: 3.53 µM
786-0 renal
  TGI: 3.01 µM
HL-60(TB) leukemia
  TGI: 3.62 µM
DLD-1 colon
  TGI: 3.84 µM
OVCAR-4 ovarian
  TGI: 3.22 µM
